# Source: patent US6365746B1, “Stable and water soluble bis Au(I) complexes and their synthesis” (Eastman Kodak Company, priority 1997, dated 2002)
# Legend:
# Type in all cases: physicochemical
# [1] = Stability study of aqueous solution monitored by UV-visible spectroscopy
# Experimental: Stability Study of Compound S. To a 1000 mL borosilicate volumetric flask was added 14.7 g of Compound S and water. An aliquot of the gold solution was placed into a quartz cuvette and the keeping characteristics of the solution were monitored using UV-visible spectroscopy over the course of 25 days. A compound, TTT, a known sensitizer having a mesoionic heterocycle was similarly monitored.
# [2] = Stability in 0.025 N H2SO4 at room temperature (gold precipitation); details: 200 mg in 600 mL 0.025 N H2SO4, room temperature, after two weeks (duration of the study)
# Experimental: Stability of Compound S versus Compound TTT. Two different batches of Compound TTT and Compound S, each weighing 200 mg, were dissolved in 600 mL of a 0.025 N H2SO4. The solutions were allowed to stand at room temperature. One of the solutions containing Compound TTT had brownish colloidal gold precipitated within 5 days and the other batch had purplish gold specks after 7 days.
# [3] = Solubility study in water (gravimetric, filtrate residue); details: stirred in the dark 1 hr, filtered, duplicate
# Experimental: Solubility Study of compound S.5 H2O. To a 10 mL borosilicate volumetric flask was added 0.25 g of Compound S and a stir bar. Water was added to the 10 mL mark and the suspension was stirred in the dark for 1 hr. The suspension was filtered through a 0.25 μm syringe filter and 3.00 mL of the filtrate was placed into a tared porcelain dish (dried by heating at 125° C. for 12 hours followed by cooling to ambient temperature in a CaCl2 desiccator). The sample was placed into a vacuum desiccator and subjected to vacuum for ca. 60 hours. Finally, the dish and residue were weighed and the mass of the residue was determined by difference.
gold precipitate from the solution [2],average solubility [3] [mg/mL],Substance,Change in Absorbance @ 235 nm ([1]; day 1),Change in Absorbance @ 235 nm ([1]; day 4),Change in Absorbance @ 235 nm ([1]; day 8),Change in Absorbance @ 235 nm ([1]; day 13),Change in Absorbance @ 235 nm ([1]; day 20),Change in Absorbance @ 235 nm ([1]; day 25)
–,–,"bis(1,4,5-trimethyl-1,2,4-triazolium-3-thiolate) gold (I) tetrafluoroborate [TTT, reference compound]",0,0.0222,0.0653,0.0868,0.1108,0.1340
no gold precipitate,33.6,potassium bis(1-[3-(2-sulfonatobenzamido)phenyl]-5-mercaptotetrazole potassium salt) aurate(I) pentahydrate [Compound S],0,0.0013,0.0015,0.0058,0.0070,0.0064
